Assay results taken from patent US11045480B2, “Anti-huLRRC15 antibody drug conjugates and methods for their use” (AbbVie Inc., priority 2015, dated 2021).

Legend:
[1] = test system: EBC-1 (human squamous NSCLC) xenograft; assay: EBC-1 xenograft tumor growth; type: in vivo, mouse
Experimental: For the experiments, five million cells (EBC-1) that were grown in vitro were inoculated subcutaneously per mouse into the right flank of female SCID-Beige mice. Tumors were size matched at ˜200 mm^3, and dosed intraperitoneally (IP) Q4D×6 (1 dose given every 4 days for a total of 6 doses) as shown in FIG. 13A. Measurements of the length (L) and width (W) of the tumors were taken via electronic caliper and the volume was calculated according to the following equation: V=L×W^2/2.
For this experiment, tumors were size matched at ˜200 mm^3, and dosed intraperitoneally (IP) Q7D×2 (1 dose given every 7 days for a total of 2 doses) as shown in FIG. 13C. […]
5 million cells were implanted subcutaneously into SCID/Beige mice, and mice were randomized when tumor group mean volumes reached ˜200 mm^3.
In FIG. 20C, EBC1 cells (5 million) were implanted subcutaneously into SCID/Beige mice and mice were randomized when the tumors reached ˜200 mm^3 and dosed with biologics at 6 mg/kg intraperitoneally on a Q7D×2 (one dose given every 7 days for a total of 2 doses), while erlotinib was dosed orally daily for 10 days at 50 mg/kg, and carboplatin was dosed intraperitoneally Q4D×3 (one dose given every 4 days for a total of 3 doses) at 50 mg/kg.
In FIG. 21B, EBC-1 squamous NSCLC cells (5 million) were implanted subcutaneously into SCID/Beige mice, and mice were randomized when the tumors reached ˜200 mm^3 and dosed with biologics at 6 mg/kg intraperitoneally on a Q7D×2 (one dose given every 7 days for a total of 2 doses), while gemcitabine was dosed intraperitoneally at 100 mg/kg (Q3D×3) (one dose given every three days for 3 doses total).

[2] = test system: EBC-1 (human squamous NSCLC) xenograft; assay: EBC-1 xenograft tumor growth; type: in vivo, mouse; conditions: EBC-1, SCID/Beige mice; huM25-vcMMAE-E2 at 3 mg/kg (method: biologics 6 mg/kg IP Q7D×2); method: gemcitabine 100 mg/kg IP Q3D×3, result sentence names docetaxel (FIG. 21B)
[3] = test system: HPAF-II (human pancreatic) xenograft; assay: HPAF-II xenograft tumor growth; type: in vivo, mouse
Experimental: For the experiment, 1 million cells (HPAF-II) that were grown in vitro were inoculated subcutaneously per mouse into the right flank of female SCID-Beige mice. Tumors were size matched at ˜200 mm^3, and dosed intraperitoneally (IP) Q4D×6 (1 dose given every 4 days for a total of 6 doses) as shown in FIG. 13B.
In FIG. 21A, HPAF-II pancreatic cancer cells (1 million) were implanted subcutaneously into SCID mice, and mice were randomized when the tumors reached ˜200 mm^3 and dosed with biologics at 6 mg/kg intraperitoneally on a Q4D×6 (one dose given every 4 days for a total of 6 doses), while gemcitabine was dosed intraperitoneally at 100 mg/kg (Q3D×4)×2 (one dose given every three days for 4 doses per cycle, 2 cycles with 8 total doses given).

[4] = test system: NW231 breast cancer xenograft; assay: NW231 xenograft tumor growth; type: in vivo, mouse; conditions: NW231, SCID mice; biologics 12 mg/kg IP Q4D×6; doxorubicin 1 mg/kg IV days 0, 4, 8, 13, 18 (FIG. 20D)
Experimental: In FIG. 20D, NW231 breast cancer cells (10 million) were implanted subcutaneously into SCID mice, and mice were randomized when the tumors reached ˜150 mm^3 and dosed with biologics at 12 mg/kg intraperitoneally on a Q4D×6 (one dose given every 4 days for a total of 6 doses), while doxorubicin was dosed intravenously at 1 mg/kg on days 0, 4, 8, 13 and 18.

[5] = test system: MC-38 mouse colorectal cancer; assay: MC-38 syngeneic tumor growth; type: in vivo
Experimental: MC-38 mouse colorectal cancer cells (250,000) were implanted subcutaneously into C57BL/6 mice, and mice were randomized when the tumors reached ˜100 mm^3 and dosed with isotype antibodies or ADCs at 12 mg/kg intraperitoneally on a Q4D×6 (one dose given every 4 days for a total of 6 doses), while the anti-PD-1 antibody (“Anti-PD1 mAb”) was dosed intraperitoneally at 2 mg/kg Q4D×6 (one dose given every 4 days for a total of 6 doses).

[6] = test system: PANC1 (pancreatic) xenograft; assay: PANC1 xenograft tumor growth; type: in vivo, mouse
Experimental: In FIG. 20E, PANC1 pancreatic cancer cells (10 million) were implanted subcutaneously into SCID mice, and mice were randomized when the tumors reached ˜125 mm^3 and dosed with biologics at 12 mg/kg intraperitoneally on a Q4D×6 (one dose given every 4 days for a total of 6 doses), while gemcitabine was dosed intraperitoneally at 100 mg/kg Q3D×4) (one dose given every three days for 4 doses total).

[7] = test system: SCC-15 head and neck cancer xenograft; assay: SCC-15 xenograft tumor growth; type: in vivo, mouse; conditions: for TGD, single agent / TGImax, single agent: SCC-15, SCID mice
Experimental: Radiation is a commonly used cytotoxic therapy in oncology. […] SCC-15 head and neck cancer cells (1 million) were implanted subcutaneously into SCID mice, and mice were randomized when the tumors reached ˜200 mm^3 and dosed with biologics at 12 mg/kg intraperitoneally on a Q4D×6 (one dose given every 4 days for a total of 6 doses), while the radiation was directed at the tumor with a single radiation dose of 15 Gy on day 0.
SCC-15 head and neck cancer cells (1 million) were implanted subcutaneously into SCID mice, and mice were randomized when the tumors reached ˜200 mm^3 and dosed with biologics at 12 mg/kg intraperitoneally on a Q7D×6 (one dose given every 7 days for a total of 6 doses), while carboplatin was dosed intraperitoneally […] at 50 mg/kg Q4D×4 (one dose given every 4 days for a total of 4 doses).

[8] = EBC1, SCID/Beige mice, biologics 6 mg/kg IP Q7D×2, erlotinib 50 mg/kg orally daily ×10, carboplatin 50 mg/kg IP Q4D×3 (FIG. 20C)
[9] = EBC-1, SCID-Beige mice, 6 mg/kg IP Q4D×6 (FIG. 13A)
[10] = EBC-1, ADC plus second agent of FIG. 21B (sentence: docetaxel; method and legend: gemcitabine)
[11] = ADC 6 mg/kg IP Q4D×6 plus gemcitabine 100 mg/kg IP (Q3D×4)×2 (FIG. 21A)
[12] = SCID mice, biologics 6 mg/kg IP Q4D×6, gemcitabine 100 mg/kg IP (Q3D×4)×2 (FIG. 21A)
[13] = SCID-Beige mice, 6 mg/kg IP Q4D×6 (FIG. 13B)
[14] = biologics 12 mg/kg IP Q4D×6 (FIG. 21D)
[15] = biologics 12 mg/kg IP Q7D×6, carboplatin 50 mg/kg IP Q4D×4 (FIG. 21E)
[16] = SCC-15, ADC 12 mg/kg IP Q4D×6 plus single radiation dose of 15 Gy on day 0 (FIG. 21D)
[17] = SCC-15, ADC 12 mg/kg IP Q7D×6 plus carboplatin 50 mg/kg IP Q4D×4 (FIG. 21E)

For “huM25-vcMMAE-E2: huM25 conjugated with maleimidocaproyl val-cit PABA MMAE, preparation enriched in DAR2 by HIC”, the TGD [1, 8] was 129%, the TGImax [1, 8] was 92% and the “maximum tumor growth inhibition (TGImax)” value [1, 9] was 97%. The “tumor growth delay (TGD)” value [1, 9] was 305%, the “TGD, single agent” value ([1]; EBC-1, SCID/Beige mice, huM25-vcMMAE-E2 at 3 mg/kg (method: biologics 6 mg/kg IP Q7D×2), method: gemcitabine 100 mg/kg IP Q3D×3, result sentence names docetaxel (FIG. 21B)) was 144% and the “TGD, used adjunctively” value [1, 10] was 348%. The “TGImax, used adjunctively” value [1, 10] was 98%, the “TGImax, single agent” value [2] was 91% and the “TGD, used adjunctively with gemcitabine” value [3, 11] was 183%. The “TGImax, used adjunctively with gemcitabine” value [3, 11] was 85%, the “TGD, single agent” value [3, 12] was 57% and the “TGImax, single agent” value [3, 12] was 57%. It also gave a TGImax [3, 13] of 76%, a tumor growth delay [3, 13] of 133% and a TGImax [4] of 89%. For the same substance, the single agent activity ([5]; MC-38, C57BL/6 mice, ADC 12 mg/kg IP Q4D×6 (FIG. 22C)) was “did not show single agent activity”, the “TGImax, administered adjunctively with anti-PD-1 antibody” value ([5]; MC-38, ADC 12 mg/kg IP Q4D×6 plus anti-PD-1 antibody 2 mg/kg IP Q4D×6 (FIG. 22C)) was 87% and the TGImax ([6]; PANC1 (3+ huLRRC15 stromal positive, cancer negative) tumor model (FIG. 17B)) was 94.4%. The TGImax ([6]; PANC1, SCID mice, biologics 12 mg/kg IP Q4D×6, gemcitabine 100 mg/kg IP Q3D×4 (FIG. 20E)) was 94%, the “TGD, single agent” value [7, 14] was 44% and the “TGImax, single agent” value [7, 14] was 58%. The “TGD, single agent” value [7, 15] was 44%, the “TGImax, single agent” value [7, 15] was 58% and the “TGD, used adjunctively with radiation” value [7, 16] was 219%. The “TGImax, used adjunctively with radiation” value [7, 16] was 90%, the “TGD, used adjunctively with carboplatin” value [7, 17] was 83% and the “TGImax, used adjunctively with carboplatin” value [7, 17] was 86%.
